Source: patent US20250177382A1, “NEK7 INHIBITORS” (Halia Therapeutics, Inc., priority 2021, published 2025)

target: T1, full-length recombinant human NEK7 (Homo sapiens, UniProt Q8TDX7); test: NEK7 enzymatic assay; type: biochemical; details: casein substrate, [32P]-ATP, radiometric P81 filter assay
T1 construct: full-length recombinant human NEK7; GST (N); purchased SignalChem N09-10G; host or cells: Sf9 insect cells (baculovirus)
Protocol: Casein substrate (from bovine milk, hydrolyzed and partially dephosphorylated mixture of α, β, and κ caseins, obtained from Sigma Aldrich, catalogue #C4765, diluted in distilled water to a final concentration of 1 mg/mL, assay concentration 20 μM) and full-length recombinant human NEK7 (expressed by baculovirus in Sf9 insect cells using a N-terminal GST tag, obtained from SignalChem, catalogue #N09-10G, […], assay concentration 70 nM) were mixed in assay buffer (20 mM Hepes pH 7.5, 10 mM MgCl2, 1 mM EGTA, 0.02% Brij35, 0.02 mg/mL BSA, 0.1 mM […], 2 mM DTT, 1% DMSO). Compounds of interest (in DMSO, serial 3-fold dilution from 10 μM to 0.5 nM) or control (1% DMSO) were dispensed into the kinase reaction mixture by Acoustic technology (Echo550; nanoliter range). After incubation at room temperature for 20 minutes, the kinase reaction was initiated by addition of [^32P]-ATP (Specific activity 10 μUCi/μl) and the mixture was incubated at room temperature for 2 hours. The reaction was then stopped by spotting the reaction mixture on strips of phosphocellulose P81 paper. Following washing, the radioactivity of the P81 paper was measured and kinase activity data were expressed as the percent remaining kinase activity in test samples compared to vehicle (dimethyl sulfoxide) reactions. IC50 values and curve fits were obtained using Prism (GraphPad Software).
(§1) Representative compounds were tested for inhibitory activity against NEK7 and IL-1β release according to the procedures described above.

T1 sequence (Q8TDX7 whole entry): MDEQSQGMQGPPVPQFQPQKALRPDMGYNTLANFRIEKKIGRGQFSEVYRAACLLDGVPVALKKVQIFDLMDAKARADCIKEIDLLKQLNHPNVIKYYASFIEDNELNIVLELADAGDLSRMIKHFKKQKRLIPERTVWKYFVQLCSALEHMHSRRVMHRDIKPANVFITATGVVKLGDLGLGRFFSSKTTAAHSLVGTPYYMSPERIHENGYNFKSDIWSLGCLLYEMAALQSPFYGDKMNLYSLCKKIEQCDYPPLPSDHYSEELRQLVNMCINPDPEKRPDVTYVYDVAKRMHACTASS

IC50 [nM]	Compound
200 to 500	CN1C[C@@H]2CN(Cc3ccc(NC(=O)Nc4ccc(Oc5ccnc6[nH]cc(Cl)c56)cc4F)cc3C(F)(F)F)C[C@@H]2C1 [Example I-15, 1-(4-((3-chloro-1H-pyrrolo[2,3-b]pyridin-4-yl)oxy)-2-fluorophenyl)-3-(4-(((3aR,6aS)-5-methylhexahydropyrrolo[3,4-c]pyrrol-2(1H)-yl)methyl)-3-(trifluoromethyl)phenyl)urea]
> 2000	CN1CCN(Cc2ccc(NC(=O)Nc3ccc(Oc4ccnc5[nH]cc(Cl)c45)cc3F)cc2C(F)(F)F)C2(CC2)C1 [Example I-20, 1-(4-((3-chloro-1H-pyrrolo[2,3-b]pyridin-4-yl)oxy)-2-fluorophenyl)-3-(4-((7-methyl-4,7-diazaspiro[2.5]octan-4-yl)methyl)-3-(trifluoromethyl)phenyl)urea]
500 to 2000	CN1CCN(Cc2ccc(NC(=O)Nc3ccc(Oc4ccnc5[nH]cc(Cl)c45)cc3F)cc2C2CC2)CC1 [Example I-26, 1-(4-((3-chloro-1H-pyrrolo[2,3-b]pyridin-4-yl)oxy)-2-fluorophenyl)-3-(3-cyclopropyl-4-((4-methylpiperazin-1-yl)methyl)phenyl)urea]
500 to 2000	CN1CCN(Cc2ccc(NC(=O)Nc3ccc(Oc4ccnc5[nH]cc(Cl)c45)cc3F)cc2Cl)CC1 [Example I-30, 1-(4-((3-chloro-1H-pyrrolo[2,3-b]pyridin-4-yl)oxy)-2-fluorophenyl)-3-(3-chloro-4-((4-methylpiperazin-1-yl)methyl)phenyl)urea]
> 2000	Cc1cn(-c2ccc(NC(=O)Nc3ccc(Oc4ccnc5[nH]cc(Cl)c45)cc3F)cc2C(F)(F)F)cn1 [Example I-32, 1-(4-((3-chloro-1H-pyrrolo[2,3-b]pyridin-4-yl)oxy)-2-fluorophenyl)-3-(4-(4-methyl-1H-imidazol-1-yl)-3-(trifluoromethyl)phenyl)urea]
500 to 2000	CN1CCCN(Cc2ccc(NC(=O)Nc3ccc(Oc4ccnc5[nH]cc(Cl)c45)cc3F)cc2C(F)(F)F)CC1 [Example I-33, 1-(4-((3-chloro-1H-pyrrolo[2,3-b]pyridin-4-yl)oxy)-2-fluorophenyl)-3-(4-((4-methyl-1,4-diazepan-1-yl)methyl)-3-(trifluoromethyl)phenyl)urea]
500 to 2000	CN1CCN(Cc2ncc(NC(=O)Nc3ccc(Oc4ccnc5[nH]cc(Cl)c45)cc3F)cc2C(F)(F)F)CC1 [Example I-46, 1-(4-((3-chloro-1H-pyrrolo[2,3-b]pyridin-4-yl)oxy)-2-fluorophenyl)-3-(6-((4-methylpiperazin-1-yl)methyl)-5-(trifluoromethyl)pyridin-3-yl)urea]
> 2000	O=C(Nc1ccc(CN2CCC(F)(F)CC2)c(C(F)(F)F)c1)Nc1ccc(Oc2ccnc3[nH]cc(Cl)c23)cc1F [Example I-47, 1-(4-((3-chloro-1H-pyrrolo[2,3-b]pyridin-4-yl)oxy)-2-fluorophenyl)-3-(4-((4,4-difluoropiperidin-1-yl)methyl)-3-(trifluoromethyl)phenyl)urea]
> 2000	O=C(Nc1ccc(OC2CCN(C3COC3)CC2)c(C(F)(F)F)c1)Nc1ccc(Oc2ccnc3[nH]cc(Cl)c23)cc1F [Example I-48, 1-(4-((3-chloro-1H-pyrrolo[2,3-b]pyridin-4-yl)oxy)-2-fluorophenyl)-3-(4-((1-(oxetan-3-yl)piperidin-4-yl)oxy)-3-(trifluoromethyl)phenyl)urea]
> 2000	CC(=O)N1CCN(Cc2ccc(NC(=O)Nc3ccc(Oc4ccnc5[nH]cc(Cl)c45)cc3F)cc2C(F)(F)F)CC1 [Example I-49, 1-(4-((4-acetylpiperazin-1-yl)methyl)-3-(trifluoromethyl)phenyl)-3-(4-((3-chloro-1H-pyrrolo[2,3-b]pyridin-4-yl)oxy)-2-fluorophenyl)urea]
500 to 2000	O=C(Nc1ccc(CN2CCN(CCF)CC2)c(C(F)(F)F)c1)Nc1ccc(Oc2ccnc3[nH]cc(Cl)c23)cc1F [Example I-50, 1-(4-((3-chloro-1H-pyrrolo[2,3-b]pyridin-4-yl)oxy)-2-fluorophenyl)-3-(4-((4-(2-fluoroethyl)piperazin-1-yl)methyl)-3-(trifluoromethyl)phenyl)urea]
200 to 500	O=C(Nc1ccc(CN2CCNCC2)c(C(F)(F)F)c1)Nc1ccc(Oc2ccnc3[nH]cc(Cl)c23)cc1F [Example I-55, 1-(4-((3-chloro-1H-pyrrolo[2,3-b]pyridin-4-yl)oxy)-2-fluorophenyl)-3-(4-(piperazin-1-ylmethyl)-3-(trifluoromethyl)phenyl)urea]
> 2000	CN(C)C1CCN(Cc2ccc(NC(=O)Nc3ccc(Oc4ccnc5[nH]cc(Cl)c45)cc3F)cc2C(F)(F)F)CC1 [Example I-57, 1-(4-((3-chloro-1H-pyrrolo[2,3-b]pyridin-4-yl)oxy)-2-fluorophenyl)-3-(4-((4-(dimethylamino)piperidin-1-yl)methyl)-3-(trifluoromethyl)phenyl)urea]
> 2000	CN1CCN(Cc2ccc(NC(=O)Nc3ccc(Oc4ccnc5[nH]cc(Cl)c45)cc3F)cc2C(F)(F)F)CC12CC2 [Example I-60, 1-(4-((3-chloro-1H-pyrrolo[2,3-b]pyridin-4-yl)oxy)-2-fluorophenyl)-3-(4-((4-methyl-4,7-diazaspiro[2.5]octan-7-yl)methyl)-3-(trifluoromethyl)phenyl)urea]
< 200	Cc1c[nH]c2nccc(Oc3ccc(NC(=O)Nc4cnc(OC5CCN(C)CC5)c(C(F)(F)F)c4)c(F)c3)c12 [Example I-61, 1-(2-fluoro-4-((3-methyl-1H-pyrrolo[2,3-b]pyridin-4-yl)oxy)phenyl)-3-(6-((1-methylpiperidin-4-yl)oxy)-5-(trifluoromethyl)pyridin-3-yl)urea]
< 200	CN1CCN(Cc2ccc(NC(=O)Nc3ccc(Oc4ccnc5[nH]cc(Cl)c45)cc3F)cc2OC(F)(F)F)CC1 [Example I-62, 1-(4-((3-chloro-1H-pyrrolo[2,3-b]pyridin-4-yl)oxy)-2-fluorophenyl)-3-(4-((4-methylpiperazin-1-yl)methyl)-3-(trifluoromethoxy)phenyl)urea]
< 200	Cc1c[nH]c2nccc(Oc3ccc(NC(=O)Nc4ccc(OC5CCN(C)CC5)c(C(F)(F)F)c4)c(F)c3)c12 [Example I-63, 1-(2-fluoro-4-((3-methyl-1H-pyrrolo[2,3-b]pyridin-4-yl)oxy)phenyl)-3-(4-((1-methylpiperidin-4-yl)oxy)-3-(trifluoromethyl)phenyl)urea]
< 200	CCN1CCC(Oc2ccc(NC(=O)Nc3ccc(Oc4ccnc5[nH]cc(Cl)c45)cc3F)cc2C(F)(F)F)CC1 [Example I-64, 1-(4-((3-chloro-1H-pyrrolo[2,3-b]pyridin-4-yl)oxy)-2-fluorophenyl)-3-(4-((1-ethylpiperidin-4-yl)oxy)-3-(trifluoromethyl)phenyl)urea]
500 to 2000	CN1CCN(Cc2cc(NC(=O)Nc3ccc(Oc4ccnc5[nH]cc(Cl)c45)cc3F)cc(C(F)(F)F)c2)CC1 [Example I-65, 1-(4-((3-chloro-1H-pyrrolo[2,3-b]pyridin-4-yl)oxy)-2-fluorophenyl)-3-(3-((4-methylpiperazin-1-yl)methyl)-5-(trifluoromethyl)phenyl)urea]
500 to 2000	CN1CCC(Oc2ccc(NC(=O)Nc3ccc(Oc4ccnc5[nH]cc(Cl)c45)cc3F)cc2C(F)(F)F)C(F)C1 (stereo not shown) [Example I-66, 1-(4-((3-chloro-1H-pyrrolo[2,3-b]pyridin-4-yl)oxy)-2-fluorophenyl)-3-(4-((3-fluoro-1-methylpiperidin-4-yl)oxy)-3-(trifluoromethyl)phenyl)urea]
> 2000	CN1CCN(C2CC(F)(F)c3cc(NC(=O)Nc4ccc(Oc5ccnc6[nH]cc(Cl)c56)cc4F)ccc32)CC1 (stereo not shown) [Example I-67, 1-(4-((3-chloro-1H-pyrrolo[2,3-b]pyridin-4-yl)oxy)-2-fluorophenyl)-3-(3,3-difluoro-1-(4-methylpiperazin-1-yl)-2,3-dihydro-1H-inden-5-yl)urea]

tested on: IL-1β release in THP-1 cells; test: IL-1β release assay; type: cell-based; details: Homo sapiens; PMA-differentiated THP-1 cells, LPS + nigericin, cleaved IL-1β by JESS
Protocol: Approximately 1.5 million THP-1 cells were plated in each well of a 6-well TC plate and incubated with 40 nM PMA in RPMI (10% FBS, 1% Penstrep) for 24 hours. The media was then removed and cells were rested in RPMI (10% FBS, 1% Penstrep) for 24 hours after which time the media was removed and cells were pre-treated for 2 hours with various concentrations of compounds of interest (typically serial 3-fold dilution in RPMI+5% FBS, concentrations ranging from 1 μM to 0.5 nM) in RPMI (5% FBS). The media was again removed and cells were incubated with 250 ng/mL LPS and compounds of interest (concentrations as above) in RMPI (5% FBS) for 2 hours. The media was removed for a last time and cells were incubated with 20 μM nigericin and compounds of interest (concentrations as above) in Opti-MEM for 30 minutes. Cell media was then collected and the amount of cleaved IL-1β was determined using a JESS instrument (Protein Simple) and standard protocols. Cleaved Il-1β antibody was obtained from Cell Signaling (catalogue #83186S) and was used at 1:20 dilution in antibody diluent 2. Protein Simple 1× anti-Rabbit HRP secondary antibody was used along with Protein Simple luminol and peroxide for chemiluminescent detection. Primary antibody incubation time was increased from 30 minutes to 60 minutes.
as §1

IC50 [nM]	Compound
< 50	CN1CCN(Cc2ccc(NC(=O)Nc3ccc(Oc4ccnc5[nH]cc(Cl)c45)cc3F)cc2C(F)(F)F)CC1 [Example I-1, 1-(4-((3-chloro-1H-pyrrolo[2,3-b]pyridin-4-yl)oxy)-2-fluorophenyl)-3-(4-((4-methylpiperazin-1-yl)methyl)-3-(trifluoromethyl)phenyl)urea]
